How the values were obtained:
[1] = tested on: delta-E Torsin1a localization in Flp-In T-REx 293 cells expressing EGFP-delta-E Torsin1a; experiment: delta-E Torsin1a mis-localization assay (high-content imaging, % cells with EGFP puncta); assay type: cell-based, human
Description: To limit variation in expression levels associated with random integration or transient expression, single copies of either WT or delta-E human TOR1A cDNAs with N-terminal EGFP fusions were inserted at the FRT site in Flp-In™ T-Rex™ 293 cells (Thermo Fisher Scientific #R780-07) via flippase recombinase-mediated cassette exchange according to the manufacturer's recommended protocols.
The cells were maintained at 37° C./5% CO2. All experiments were performed on cells with fewer than 5 passages.
Torsin1a expression was also controlled by tetracycline induction to avoid selective pressure modifying the cellular phenotypes. […] The mutant phenotype was measured as the percentage of cells with one or more EGFP puncta using automated high-content imaging analysis (see infra).
The image analysis algorithm was developed using the Cellomics ArrayScan V CompartmentAnalysisV2 protocol. Hoechst's nuclear staining (Ch1: excitation 350 nm; emission 461 nm) was used for focusing and for cell identification by nuclear size, shape, and intensity. […] Detected cells were gated according to nuclear area, length-to-width ratio, and perimeter-to-area ratio. For the purpose of analysis, cell bodies were defined by a radius of 10 μm from the outer edge of the defined nucleus. Overlapping cells were automatically segmented according to the Cellomics ArrayScanV CompartmentAnalysisV2 object segmentation feature. EGFP fluorescence (Ch2: excitation 488 nm; emission 509 nm) was used for puncta detection. […] Torsin1a puncta were identified using the spot detection feature of the Compartmental AnalysisV2 protocol. The percentage of cells containing one or more puncta was used as the primary metric in this assay.
(§1) In order to test this model directly, the delta-E Torsin1a cell line was treated with compounds targeting the eIF2-alpha signaling pathway (FIG. 2). […] The following day, serial drug dilutions were prepared at 2× final concentration in assay media containing 10 μg/mL tetracycline and 30 μL of the drug/tetracycline mixture was added to the appropriate wells, while control wells received 30 μL of assay media alone or assay media+10 μg/mL tetracycline (final tetracycline concentration for all wells except negative controls: 5 μg/mL). Cells were then incubated at 37° C./5% CO^2 for 48 hours and fixed, permeabilized, Hoechst stained, and imaged as described above. The range of the Torsin1a localization effect was normalized to the percentage of cells with puncta in vehicle-treated delta-E cell line as the maximum and that in WT cell line as the minimum (FIG. 2, panels c-h). Cell count and EGFP-Torsin1a expression were normalized to their respective values in the vehicle-treated delta-E cell line as the maximum. All dose response data are the average of 4 independent experiments per dose. Untreated control data used for normalization are the average of 24 independent experiments.

luciferase secretion = experiment: C.Luc. Secretion Assay (luciferase secretion, secretory deficits); assay type: cell-based
Description: We tested each shRNA for its ability to rescue a previously described defect in luciferase secretion. Chen, P. et al. (2010) Hum. Mol. Genet. 19, 3502-15; Cao, S. et al. (2010) Dis. Model. Mech. 3, 386-96; Barrows, N. J., et al., (2010)J. Biomol. Screen. 15, 735-47.) DYT1 patient data were obtained from 4 independent patient-derived lines and WT data (black bar) from 3 normal healthy control lines. Each line was tested in 5 independent experiments that included 4 technical replicates each (with the exception of SCD data from 3 independent experiments).
(Cao, S. et al. (2010) Dis. Model. Mech. 3, 386-96.) Subsequent testing of additional HIV protease inhibitors supported the activity of this class of compounds and generated favorable structure-activity relationship (SAR) data from which to design improved compounds (Tables 5 and 6). The results with a subset of compounds were also observed in a Luciferase secretion assay (Tables 5 and 6).

[2] = Cytotoxicity (cell count, cellular morphology) in the Torsin1a assay cell line; assay type: cell-based, human; conditions: human
Description: as §1
(§2) Efficacy is calculated as the magnitude of the pathology correction relative to the mutant Torsin1a pathology. For example an efficacy=−100% would be equivalent to the WT TorsinA phenotype, and 0% would be equivalent to the Mutant TorsinA phenotype. CCv2 refers to the dose response Curve Class annotation, and AC refers to Active Concentration.

[3] = tested on: Flp-In T-REx 293 cells expressing delta-E Torsin1a; experiment: as above; assay type: cell-based, human
Description: as §1, §2

EIF2-alpha = experiment: Western blot of phosphorylated eIF2-alpha in EGFP-delta-E Torsin1a assay cell line; assay type: cell-based, human; conditions: EGFP-ΔE Torsin1a cells, dose dependent
Description: (§3) Cells were harvested in RIPA buffer [150 mM NaCl/50 mM NaH2PO4/2 mM EDTA/l % Triton X-100/0.5% SDS/0.5% deoxycholic acid/50 mM NaF/10 mM Na4P2O7/1 mM Na3VO4/1× phosphatase inhibitor cocktail (Sigma #P5726)/1× cOmplete Mini EDTA-free protease inhibitor cocktail (Roche #04693159001)]. Total protein concentrations were assessed by BCA assay (Thermo Fisher Scientific #23225). Proteins were resolved on 4-15% TGX gels (Bio-Rad #5671085), transferred to nitrocelulose membrane, blocked in TBS-T+5% non-fat dry milk, and probed as indicated. (Primary antibodies employed in the examples of the disclosure are presented in Table 4.) ATF4 expression was normalized to […] expression. N=3 independent control cells lines and 4 independent DYT1 cell lines, 3 replicates each.
(§4) Western blot analyses were conducted to determine the effect of Lopinavir on ATF4, CreP, pEIF2-alpha, and β-actin abundance in EGFP-ΔE Torsin1a expression assay cell lines. […] This down regulation of CreP is in keeping with the HIV protease inhibitor mediated CreP regulation. (See De Gassart et al. PNAS 2015.)

ATF4 = experiment: Western blot of ATF4 in EGFP-delta-E Torsin1a assay cell line; assay type: cell-based, human; conditions: EGFP-ΔE Torsin1a cells, dose dependent
Description: as §3, §4

CreP = experiment: Western blot of CreP in EGFP-delta-E Torsin1a assay cell line; assay type: cell-based, human; conditions: EGFP-ΔE Torsin1a cells, increasing concentration
Description: as §3, §4

## Cc1cccc(C)c1OCC(=O)N[C@@H](Cc1ccccc1)[C@@H](O)C[C@H](Cc1ccccc1)NC(=O)[C@H](C(C)C)N1CCCNC1=O [Lopinavir, lopinavir]
[1]; Homo sapiens, Flp-In-T-REx-293, Table 5, read-out: ΔE TorsinA Mislocalization Assay Localization EC50
  EC50: 4.69 µM
[1]; Homo sapiens, Flp-In-T-REx-293, Table 5, read-out: ΔE TorsinA Mislocalization Assay Localization Max Efficacy
  Emax: 70%
[1]; Homo sapiens, Flp-In-T-REx-293, Table 6, AC = Active Concentration, read-out: % pathology AC50
  AC50: 4.69 µM
[1]; Table 6, normalized scale, WT-TorsinA line 0%, DYT1 mutant line 100% pathology
  % pathology Max Resp: −89.03%
[1]; Table 6, normalized scale, −100% = WT TorsinA phenotype, 0% = Mutant TorsinA phenotype
  % pathology Efficacy: −69.97%
[1]; delta-E cell line, dose response
  effect on delta-E Torsin1a localization (in words): corrected TorsinA localization in a dose-dependent fashion
Luciferase secretion; Table 5
  EC50: 0.98 µM
Luciferase secretion; Table 5, read-out: C.Luc. Secretion Assay Secretion Max Efficacy
  Emax: 177%
Luciferase secretion; orthogonal assays
  correction of secretory deficits (in words): corrected secretory deficits
[2]; Flp-In T-REx 293 cells inducibly expressing delta-E Torsin1a, Table 5, read-out: ΔE TorsinA Mislocalization Assay Cytotoxicity EC50
  EC50 at 48 h: 37.2 µM
[2]; Table 6, read-out: Cytotox AC50
  AC50: 37.2 µM
[3]; Table 6
  Cytotox CC-v2 (dose response Curve Class): −3
  Cytotox Efficacy: −69.87
  Cytotox Max Resp: −55.19
[3]; at effective concentrations
  toxicity (cell count, cellular morphology; in words): no cellular toxicity observed at effective doses
EIF2-alpha
  phosphorylation of EIF2-alpha: increases phosphorylation of EIF2-alpha
ATF4
  ATF4 abundance: increases phosphorylation of EIF2-alpha and ATF4 abundance
CreP
  CreP abundance (steady state levels): down-regulation of steady state levels
CreP; listed as lopinavir
  CreP abundance (steady state levels): decreases CReP abundance

From patent US11285142B2, “Compositions and methods for identifying and treating dystonia disorders” (DUKE UNIVERSITY, priority 2015, dated 2022)
